Assay type in all cases: cell-based
The target in one series is T1, SmoM2::GFP (Homo sapiens, UniProt Q99835, W535L).
T1 construct: expressed in transfected cells
Put plainly: Ciliary localization of SmoM2::GFP (3T3/SmoM2::GFP Overexpression/Ivs::tagRFPT). The source says:
(§1) NIH/3T3 cells were maintained in DMEM containing 10% (v/v) calf serum, penicillin, streptomycin, and L-glutamine. HEK293, L, cos 7, and suFU−/− mouse embryonic fibroblast cells were maintained in DMEM containing 10% (v/v) fetal bovine serum, penicillin, streptomycin, and L-glutamine. Smo::EGFP, SmoM2::GFP, and Ivs::tagRFPT were cloned into pBabe to generate retroviral particles for infection. Smo::EGFP/Ivs::tagRFPT and SmoM2::GFP/Ivs::tagRFPT stable cell lines were generated through viral infection of NIH/3T3^12. A ShhLightII Gli reporter cell line was obtained from the American Type Culture Collection (ATCC) and used in luciferase reporter assays to measure Hh pathway activity. The cell line contains a stably integrated Gli-responsive Firefly luciferase reporter and a constitutive Renilla luciferase expression construct^33. Subclones expressing Smo or SmoM2 in ShhLightII cells were used for chemical epistasis analyses.
(§2) Cells were cultured and treated in 384-well imaging plate precoated with poly-D-Lysine (Greiner Bio-one), fixed with 4% paraformaldehyde (Electron Microscopy Sciences), and stained with Hoechst (Invitrogen). Images were collected using Opera High Content Screening System (Perkin Elmer). Activityl)ase (IDBS Inc, Emeryvill, Calif.) and Pipeline Pilot (Accelrys, Inc. San Diego, Calif.) were used for high content screening data management and analysis. Acapella 2.0 software (Evotec Technologies/PerkinElmer) was used to perform multi-parametrical high content image quantification. All the images for comparison were scanned with identical microscopic settings and analyzed with the same input parameters.
(§3) Acapella 2.0 software (Evotec Technologies/PerkinElmer) was used to perform multi-parametric high content image quantification. Our image analysis script used Ivs::tagREPT to first determine the location of the PC and then Smo::EGFP to quantify the level of Smo present in the cilium.

The target in the next series is T2, Smo::EGFP (Homo sapiens, UniProt Q99835).
T2 construct: expressed in transfected cells
T2 sequence (Q99835 28-787): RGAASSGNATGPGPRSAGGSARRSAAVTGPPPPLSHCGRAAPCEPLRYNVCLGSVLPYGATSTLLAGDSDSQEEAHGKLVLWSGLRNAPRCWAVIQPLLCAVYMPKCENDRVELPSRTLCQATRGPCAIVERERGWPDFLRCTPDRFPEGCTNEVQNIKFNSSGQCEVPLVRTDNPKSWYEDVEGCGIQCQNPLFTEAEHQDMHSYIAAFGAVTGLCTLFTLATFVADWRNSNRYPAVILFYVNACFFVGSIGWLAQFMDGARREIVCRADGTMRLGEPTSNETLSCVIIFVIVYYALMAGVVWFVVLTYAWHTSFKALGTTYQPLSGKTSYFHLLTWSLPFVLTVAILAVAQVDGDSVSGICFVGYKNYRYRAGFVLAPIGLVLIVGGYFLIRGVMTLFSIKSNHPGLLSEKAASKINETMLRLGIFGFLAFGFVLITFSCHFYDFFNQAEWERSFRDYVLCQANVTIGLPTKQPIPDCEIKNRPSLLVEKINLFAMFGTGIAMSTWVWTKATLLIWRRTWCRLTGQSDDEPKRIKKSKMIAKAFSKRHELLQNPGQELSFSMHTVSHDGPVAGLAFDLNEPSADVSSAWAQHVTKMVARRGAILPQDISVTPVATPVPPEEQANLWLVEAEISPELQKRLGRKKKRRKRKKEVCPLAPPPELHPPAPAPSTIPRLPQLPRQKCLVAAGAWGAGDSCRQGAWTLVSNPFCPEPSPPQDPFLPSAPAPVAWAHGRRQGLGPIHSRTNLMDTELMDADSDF
The experiment in a line: High content assay of Shh-induced Smo::EGFP accumulation in the primary cilium (Smo::EGFP/Ivs::tagRFPT NIH/3T3 cells). The settings on record: 3T3/Smo::GFP/Ivs::tagRFPT cells; stimulus Shh; read-out: IC50, inhibition of Shh-induced Smo::GFP ciliary accumulaton.
Text: as §1, §2, §3
The inventors used the spot-finding algorithm in the RFP channel to find Ivs-rich spots. Each non-overlapping spot was based on a maximum 8 pixel-radius (when using a 40× objective) around a central intensity peak of 5 pixels. A distance of at least 10 pixels was required between adjacent spot centers. Spot peaks had to exceed thresholds of relative intensity compared to the remaining body of the spot as well as to the entire image. The average, maximum and total RFP intensity of each spot were measured. The spots with sufficiently high absolute maxima to pass the selected threshold were classified as positive spots. To form candidate cilia, the inventors selected the brightest 15% of the pixels in each positive spot and merged those pixels into objects so that the brightest parts of adjacent spots could form single, larger cilia-shaped objects. To qualify the candidate cilia as true Ivs-positive cilia, the width of the objects created from merging the brightest pixels in each spot had to be at least 2 pixels and the length to half-width ratio had to exceed 3. (i.e. a 3-pixel long by 2-pixel wide cilium was the minimum accepted cilium size and the length had to be at least 1.5 fold of the width). The mean GFP intensity within these Ivs-positive cilia was used to estimate the ciliary level of Smo protein. The inventors subtracted the background of the mean GFP intensity in the 3-pixel wide area around each candidate cilium to avoid some false positives. Those Ivs-positive cilia that exceed the final mean GFP intensity threshold set for each experiment were deemed Smo-positive cilia.
(§4) Hoechst staining was used to determine the total number of nuclei per well.
Measurements of the geometry of the cilia as well as the total fluorescent intensities of each cilium in the Smo- and Ivs-channels were used to determine if any of the compounds were having unusual effects on cilia size, intensity or frequency of observation or combinations of all three characteristics.

Another series has as its system Smo. The experiment in a line: Gli-luciferase reporter induced by Smo::GFP overexpression (Smo/LightII cells). The conditions noted are these: Mus musculus, Shh Light II; 3T3/Smo::GFP Overexpression/Shh-LightII; stimulus none; read-out: IC50, inhibition of expression of Gli-luciferase reporter induced by Smo::GFP overexpression.
Text: as §1, with “The cell line contains a stably integrated Gli-responsive Firefly luciferase reporter and a constitutive Renilla luciferase expression construct^33. Subclones expressing Smo or SmoM2 in ShhLightII cells were used for chemical epistasis analyses.” left out
Hh activity assays were performed using ShhLightll cells, Smo/Lightll cells, SmoM2/Lightll cells, and suFU−/− mouse embryonic fibroblasts. In the suFU−/− cells, Hh activity was measured after co-transfection with Gli driven firefly luciferase and TK-renilla luciferase reporters^41. Wnt activity was measured in 293 cells co-transfected with Top-flash and TK-renilla luciferase reporters^42. Cells were cultured and treated in 96 well assay plates (Corning) and incubated with Duo-Glo luciferase substrates (Promega) to measure firefly and renilla luciferase activity sequentially using a Top Count NX Microplate Scintillation and Luminescence Counter (Perkin Elmer). […]

In a further series the target is Smo::GFP (Homo sapiens, UniProt Q99835). The experiment in a line: Ciliary accumulation of Smo::GFP upon overexpression (3T3/Smo::GFP Overexpression/Ivs::tagRFPT). The conditions noted are these: stimulus none, read-out: IC50, inhibiton of ciliary accumulation of Smo::GFP upon overexpression.
Smo::GFP, sequence (Q99835 28-787): as above
The next series relates to Hh pathway activity. The experiment in a line: SAG-induced Gli-luciferase reporter expression (3T3/Shh-LightII). The conditions noted are these: Mus musculus, Shh Light II, 3T3/Shh-LightII cells; 100 nM SAG; read-out: IC50, inhibition of SAG-induced expression of Gli-luciferase reporter. How it is done:
Hh activity assays were performed using ShhLightll cells, Smo/Lightll cells, SmoM2/Lightll cells, and suFU−/− mouse embryonic fibroblasts. In the suFU−/− cells, Hh activity was measured after co-transfection with Gli driven firefly luciferase and TK-renilla luciferase reporters^41. Wnt activity was measured in 293 cells co-transfected with Top-flash and TK-renilla luciferase reporters^42. Cells were cultured and treated in 96 well assay plates (Corning) and incubated with Duo-Glo luciferase substrates (Promega) to measure firefly and renilla luciferase activity sequentially using a Top Count NX Microplate Scintillation and Luminescence Counter (Perkin Elmer). The renilla luciferase signal was used to normalize the firefly reporter activity.
ShhLightII cells and SmoM2/LightII cells were cultured and treated in 96 well assay plates (Corning) and incubated with Duo-Glo luciferase substrates (Promega) to sequentially measure firefly and renilla luciferase activity. […] Wnt activity was measured following co-transfection of a Top-flash and renilla luciferase reporter. […] Luciferase signal was read by TopCount NX Microplate Scintillation and Luminescence Counter (Perkin Elmer). Quantitative PCR probes for Ptch1, Gli1, and β-actin were purchased from Applied Biosystems. […]
Background: A reporter such as luciferase makes a cellular process visible.

Series [1] has as its system Smo::EGFP/Ivs::tagRFPT cells. Put plainly: Cytotoxicity in vitro in the high content assay. The settings on record: doses up to 200 μM. How it is done: as §4
Cells were cultured and treated in 384-well imaging plate precoated with poly-D-Lysine (Greiner Bio-one), fixed with 4% paraformaldehyde (Electron Microscopy Sciences), and stained with Hoechst (Invitrogen). Images were collected using Opera High Content Screening System (Perkin Elmer).

Consider 2 molecules from patent publication US20130274233A1, “MODULATORS OF HEDGEHOG SIGNALING PATHWAY” (priority 2012, published 2013).

Each structure is given as a SMILES string.

T1 sequence (Q99835 28-787 W535L): as the sequence (Q99835 28-787) above, with W508L counted along it

As a reminder, the IC50 is the concentration at which inhibition is half-maximal. As to `CCN(CC)c1ccc(/C=N/NC(=O)c2ccc(O)cc2)cc1` [DY131], the IC50 at SmoM2::GFP (3T3/SmoM2::GFP Overexpression/Ivs::tagRFPT, stimulus none, read-out: IC50, inhibition of ciliary localization of SmoM2::GFP) was above 30 µM; on Smo::EGFP, 800 nM; in the series with Smo it was above 30 µM; on Smo::GFP, 80 nM; in the series on Hh pathway activity, around 2000 nM. Moreover, the “effect on SmoM2 ciliary localization” value on SmoM2::GFP (SmoM2::EGFP overexpressing cells) was “failed to inhibit”.
As for `CC1(C)O[C@@H]2C[C@H]3[C@@H]4C[C@H](F)C5=CC(=O)C=C[C@]5(C)[C@@]4(F)[C@@H](O)C[C@]3(C)[C@]2(C(=O)CO)O1` [FA, fluocinolone acetonide], the “cytotoxic effects in vitro” value in series [1] was “no obvious cytotoxic effects”.
